Laboratory results as given in article PMC11881160 (International Journal of Nanomedicine, 2025).
Marks after values point to notes of the source that are not given here.

Key:
[1] = Pharmacokinetic study of LUT and LUT-NS-LP in rats; format: in vivo, Sprague-Dawley (SD) rats
[2] = test system: CYP450s of Rat Liver Microsomes (RLMs); test: In vitro CYP450 metabolism of ATV and inhibition by LUT in rat liver microsomes; conditions: CYP450s mixture of RLMs, Lineweaver-Burk plots
[3] = PBPK model input; ATV value marked (acid); ref Drugbank; cited from earlier work
[4] = stated in the discussion without reference; species not given; cited from earlier work
[5] = In vitro dissolution test; format: physicochemical; conditions: 100 rpm, n=3
[6] = male, Sprague-Dawley, rat, plasma, po, 200 mg/kg

- AUC(0-inf) [1, 6]: 4230 ± 1510 ng·h/mL
- AUC(0-t) [1, 6]: 3840 ± 1390 ng·h/mL
- CL/F [1, 6]: 880 mL/min/kg
- Cmax [1, 6]: 1140 ± 320 ng/mL
- MRT inf [1, 6]: 4.02 ± 1.68 h
- MRT last [1, 6]: 2.88 ± 0.96 h
- Tmax [1, 6]: 0.92 ± 0.59 h
- Vd/F [1, 6]: 178 ± 85.1 L/kg
- half-life [1, 6]: 2.6 ± 1.52 h
- F (bioavailability) ([1]; relative to LUT, rats, oral 200 mg/kg): 1 fold
- Form of inhibition of ATV metabolism by LUT [2]: non-competitive
- Drug release ([5]; pH 1.2 buffer containing 0.05% Tween 80, after 120 min, 37°C): 36.58 ± 0.99%
- Drug release ([5]; pH 6.8 phosphate buffer containing 0.05% Tween 80, 37°C): 59.10 ± 3.13%
Structure (SMILES): O=c1cc(-c2ccc(O)c(O)c2)oc2cc(O)cc(O)c12 [LUT, Luteolin]
- pKa [3]: 6.57^a
- Oral absolute bioavailability [4]: under 5%
